Patent US4454156A, “4-Amino-hepta-5,6-dienoic acid” (Merrell-Toraude et Compagnie, priority 1982, dated 1984)
Several values for one entry are separate records, joined by “and”; a condition that tells them apart may be missing. Equal entries are not always repeated.

Experiments:
GABA-T [1] = assay: GABA-T activity in mouse brain after seven daily i.p. doses; assay type: in vivo, mice (male albino CD1); conditions: 24 h after last dose
Protocol: (§1) Male albino CD1 mice each weighing approximately 34 g at commencement of the test are given an i.p. injection of the test compound in aqueous solution daily for seven consecutive days. Half of the animals are killed by decapitation 24 hours after the last dose fo the test compound. The other half of the animals are observed for up to 12 days for toxicity (as indicated by weight loss and deaths). Control animals receive an injecion of the vehicle only.
(§2) The brains are removed from the dead mice and are divided into two portions by sagittal section. One half is used for the measurement of GABA-T activity while the other is used for measuring GABA content. The GABA-T activity is measured using known methods as described by M. Jung et al., J.Neurochem., 28, 717 (1977) and 29, 797 (1977). GABA content is measured by perchloric acid or trichloroacetic acid extracts using an amino acid analyzer equiped with a fluorescence detector.

GABA levels in the brain [2] = assay: GABA content of mouse brain after seven daily i.p. doses; assay type: in vivo, mice (male albino CD1); conditions: 24 h after last dose
Protocol: as §1, §2

GABA-T [3] = assay: GABA-T activity in mouse brain after a single i.p. or oral dose; assay type: in vivo, mice; conditions: for GABA-T Activity (calculated as percent inhibition): 6 h
Protocol: as §1, §2
A. The procedure of Example 3 is repeated using a single i.p. dose of the test compound and killing the mice 6 hours after the i.p. injection.
(§3) B. The procedure of Part A is repeated using both oral and i.p. doses of (R,S)-allenyl GABA.

GABA levels in the brain [4] = assay: GABA level in mouse brain after a single i.p. or oral dose; assay type: in vivo, mice; conditions: for GABA Level (calculated as percent of control): 6 h
Protocol: […] […] The other half of the animals are observed for up to 12 days for toxicity (as indicated by weight loss and deaths). Control animals receive an injecion of the vehicle only.
The brains are removed from the dead mice and are divided into two portions by sagittal section. One half is used for the measurement of GABA-T activity while the other is used for measuring GABA content. […] GABA content is measured by perchloric acid or trichloroacetic acid extracts using an amino acid analyzer equiped with a fluorescence detector.
as §3

[5] = Toxicity (lethality) after i.p. or oral administration to mice
Protocol: A. The toxicity of (S)-allenyl GABA and (R,S)-allenyl GABA was determined after i.p. administration to male mice. The mice were observed up to eight days after injection.
B. The toxicity of (S)-allenyl GABA ("S") and (R,S)-allenyl GABA ("R,S") was determined as in Part A after both oral and i.p. administration.

[6] = tested on: seizures and death induced by mercaptopropionic acid; assay: Protection of mice against seizures and death induced by mercaptopropionic acid; assay type: in vivo; conditions: for Number of Animals having seizures / Number of Dead animals: 6 h before mercaptopropionic acid 53 mg/kg i.p.
Excerpt: Mice (3.5) were given a single i.p. injection of the test compound. […] The results of the testing are set forth below

[7] = 100 mg/kg i.p. daily for 7 days
[8] = i.p., 0.77 mM/kg (135.9 mg/kg), single dose, Table 3
[9] = i.p., 1.94 mM/kg (342.4 mg/kg), single dose, Table 3
[10] = i.p., 3.87 mM/kg (683.1 mg/kg), single dose, Table 3
[11] = oral, 0.77 mM/kg (135.9 mg/kg), single dose, Table 3
[12] = oral, 1.94 mM/kg (342.4 mg/kg), single dose, Table 3
[13] = oral, 3.87 mM/kg (683.1 mg/kg), single dose, Table 3
[14] = single i.p. dose 1.55 mM/kg (273.5 mg/kg), Table 2
[15] = single i.p. dose 3.10 mM/kg (547.2 mg/kg), Table 2
[16] = single i.p. dose 6.2 mM/kg (1094.3 mg/kg), Table 2
[17] = mercaptopropionic acid model, mice

C=C=CC(N)CCC(=O)O (racemic) [(R,S)-allenyl GABA, (R,S)-4-amino-hepta-5,6-dienoic acid]
GABA-T Activity (calculated as percent inhibition) (GABA-T [1]; 50 mg/kg i.p. daily for 7 days): 55 percent inhibition
GABA-T Activity (calculated as percent inhibition) (GABA-T [1]; [7]): 74 percent inhibition
GABA Level (calculated as percent of control) (GABA levels in the brain [2]; 50 mg/kg i.p. daily for 7 days): 130% of control
GABA Level (calculated as percent of control) (GABA levels in the brain [2]; [7]): 180% of control
GABA-T Activity (calculated as percent inhibition) (GABA-T [3]; [8]): 64 percent inhibition
GABA-T Activity (calculated as percent inhibition) (GABA-T [3]; [9]): 84 percent inhibition
GABA-T Activity (calculated as percent inhibition) (GABA-T [3]; [10]): 88 percent inhibition
irreversible inhibition of GABA-T in vivo (GABA-T [3]; in vivo): produce irreversible inhibition of GABA-T
GABA-T Activity (calculated as percent inhibition) (GABA-T [3]; [11]): 69 percent inhibition
GABA-T Activity (calculated as percent inhibition) (GABA-T [3]; [12]): 81 percent inhibition
GABA-T Activity (calculated as percent inhibition) (GABA-T [3]; [13]): 86 percent inhibition
GABA-T Activity (calculated as percent inhibition) (GABA-T [3]; [14]): 76 percent inhibition
GABA-T Activity (calculated as percent inhibition) (GABA-T [3]; [15]): 89 percent inhibition
GABA-T Activity (calculated as percent inhibition) (GABA-T [3]; [16]): 96 percent inhibition
elevation of GABA levels in the CNS (GABA levels in the brain [4]; administered orally or parenterally): can elevate GABA levels significantly in the CNS
GABA Level (calculated as percent of control) (GABA levels in the brain [4]; [8]): 310% of control
GABA Level (calculated as percent of control) (GABA levels in the brain [4]; [9]): 490% of control
GABA Level (calculated as percent of control) (GABA levels in the brain [4]; [10]): 600% of control
effectiveness by oral versus i.p. route (GABA levels in the brain [4]; oral vs i.p., Table 3): equally effective when given by the oral and i.p. routes of administration
GABA Level (calculated as percent of control) (GABA levels in the brain [4]; [11]): 330% of control
GABA Level (calculated as percent of control) (GABA levels in the brain [4]; [12]): 434% of control
GABA Level (calculated as percent of control) (GABA levels in the brain [4]; [13]): 530% of control
GABA Level (calculated as percent of control) (GABA levels in the brain [4]; [14]): 470% of control
GABA Level (calculated as percent of control) (GABA levels in the brain [4]; [15]): 530% of control
GABA Level (calculated as percent of control) (GABA levels in the brain [4]; [16]): 770% of control
selectivity ratio ([5]; mouse, in vivo, ip): 4 to 5
No. of dead animals ([5]; mouse, in vivo, ip, 500 mg/kg): 0/5
No. of dead animals Day 4 ([5]; mouse, in vivo, ip, 500 mg/kg): 0/5
No. of dead animals ([5]; mouse, in vivo, ip, 750 mg/kg): 3/5
No. of dead animals Day 4 ([5]; mouse, in vivo, ip, 750 mg/kg): 3/5
No. of dead animals ([5]; mouse, in vivo, ip, 1000 mg/kg): 2/5 and 4/5 and 5/5
No. of dead animals Day 4 ([5]; mouse, in vivo, ip, 1000 mg/kg): 5/5
No. of dead animals ([5]; mouse, in vivo, ip, 1500 mg/kg): 5/5
No. of dead animals Day 4 ([5]; mouse, in vivo, ip, 1500 mg/kg): 5/5
No. of dead animals Day 4 ([5]; mouse, in vivo, po, 500 mg/kg): 0/5
No. of dead animals Day 4 ([5]; mouse, in vivo, po, 750 mg/kg): 0/5
No. of dead animals Day 4 ([5]; mouse, in vivo, po, 1000 mg/kg): 0/5
No. of dead animals Day 4 ([5]; mouse, in vivo, po, 1500 mg/kg): 0/5
toxicity by oral administration ([5]; oral): did not show toxicity by the oral route up to a dose of 1500 mg/kg
Number of Animals having seizures ([6]; 0.39 mMole/kg i.p.): 5/5
Number of Dead animals ([6]; 0.39 mMole/kg i.p.): 3/5
Number of Animals having seizures ([6]; 0.77 mMole/kg i.p.): 5/5
Number of Dead animals ([6]; 0.77 mMole/kg i.p.): 2/5
Number of Animals having seizures ([6]; 1.9 mMole/kg i.p.): 3/5
Number of Dead animals ([6]; 1.9 mMole/kg i.p.): 0/5
Number of Animals having seizures ([6]; 3.9 mMole/kg i.p.): 3/5
Number of Dead animals ([6]; 3.9 mMole/kg i.p.): 0/5
effect on number of dead animals [6, 17]: significantly reduces the number of dead animals
protection against seizures [6, 17]: does not protect totally against seizures
